Experimental data as given in article PMC7754785 (ACS Omega, 2020).
“And” between values parts separate entries of the source, which are not always exact repeats. Equal entries are not always repeated.

Legend:
Mpro [1] = molecular target: T1, Mpro (Severe acute respiratory syndrome coronavirus 2, UniProt P0DTD1); assay: Universal protease activity assay with casein as substrate; format: biochemical, SARS-CoV-2; settings: IC50, 10 μM Mpro, 150 μM casein, phosphate buffer pH 7.5, 37 °C
Mpro from SARS CoV-2 = Mpro from SARS CoV-2 (Severe acute respiratory syndrome coronavirus 2, UniProt P0DTD1); assay: Surface plasmon resonance binding to immobilized Mpro; settings: dissociation constant KD, SPR, Mpro immobilized on CM-5 chip; KD = koff/kon
Mpro [2] = molecular target: T1, Mpro; settings: previous computational studies in our lab; cited from earlier work
Mpro [3] = molecular target: T1, Mpro; settings: previous computational studies in our lab; cited from earlier work; remark: listed apart in the source

SMILES | IC50 (Mpro [1]) [µM] | Kd (Mpro from SARS CoV-2) | docking score (Mpro [2]) [kcal/mol] | MM-PBSA binding free energy (Mpro [3]) [kcal/mol]
Nc1ccn([C@H]2C[C@H](O)[C@@H](COP(=O)(O)OP(=O)(O)OP(=O)(O)OP(=O)(O)OC[C@H]3O[C@@H](n4ccc(=O)[nH]c4=O)[C@H](O)[C@@H]3O)O2)c(=O)n1 [DB04983, Denufosol] | 1300 | 1400 µM and 1440 µM |  | 
CSCCNc1nc(SCCC(F)(F)F)nc2c1ncn2[C@@H]1O[C@H](COP(=O)(O)OP(=O)(O)C(Cl)(Cl)P(=O)(O)O)[C@@H](O)[C@H]1O [cangrelor] | 900 | 700 µM and 640 µM | -12.28 | 
CC(C)c1nc(CN(C)C(=O)N[C@@H](CCN2CCOCC2)C(=O)N[C@H](CC[C@H](Cc2ccccc2)NC(=O)OCc2cncs2)Cc2ccccc2)cs1 [cobicistat] | ~6.7 | ~2.1 µM and 2.1 µM | -12.31 | -11.41
